Measurements reported in US20100273722A1, “MODIFIED MINIATURE PROTEINS” (Yale University, priority 2007, published 2010).

Assay: Sedimentation equilibrium analytical ultracentrifugation of aPP variants, monomer-n-mer fit (self-association)
Type: physicochemical
Conditions: for n (stoichiometry of the self-associated complex): monomer-n-mer fit; for n (stoichiometry of the self-associated complex) / lnKA when n = 4 / % monomer at 30 μM: 25° C.; for lnKA when n = 4: monomer-tetramer; for Kd (self-association, tetramer): n = 4, 25° C., calculated from ln KA; for % monomer at 30 μM: 30 μM peptide
Procedure: Analytical ultracentrifugation experiments were performed using peptide solutions prepared in Tris.Cl buffer (25 mM Tris base, 50 mM NaCl, (pH 8.0)) at the appropriate concentrations (5 micromolar to 200 micromolar). Samples were then centrifuged to equilibrium at 25° C. at 42,000, 50,000, and 60,000 rpm. Data were collected with a 0.001 cm step size and successive scans were initiated at 2 h intervals. Samples were judged to have reached equilibrium when the radial concentration gradient remained unchanged over three successive scans using the Match module of Heteroanalysis software v1.1.19. The solvent density (ρ, rho) and partial specific volume ( ν, nu) were calculated using the Sedimentation Interpretation Program “Sednterp” software v1.08.
The data for each peptide (multiple concentrations at three speeds) was first fit globally to an equation describing the sedimentation of an ideal species of molecular weight Mn (Eq. 1) using Heteroanalysis software v1.1.19:
where C represents the concentration of the sedimenting species at distances r and r0 cm from the center of rotation; ν (nu) is the partial specific volume of the sedimenting species in cc/g; ρ (rho) is the density of the supporting buffer in g/cc; ω (omega) is the angular velocity of the rotor (radians/s); Mn is the “molar” molecular weight of sedimenting species (g/mol); R is the universal gas constant (8.315×10^7 ergs K^−1 mol^−1) and T is the temperature in degrees Kelvin.
In order to quantify this self-association, the data for each peptide was next fit globally to a monomer-n-mer equilibrium model using Eq. 2:
where n is the stoichiometry of the self-associated complex. Errors were calculated for n and lnKA using f-statistics to two standard deviations.
Samples were prepared in PBS buffer and centrifuged at speeds of 42,000 (41), 50,000 (42), or 60,000 RPM (43) at 25° C. Experimental data are shown as points; lines indicate the best fit to a monomer-n-mer model described by Eq. 2.

Substance	n (stoichiometry of the self-associated complex)	lnKA when n = 4	Kd (self-association, tetramer)	% monomer at 30 μM [%]
GPSQPTAPGDDAPVEDLIRFYDNLQQYLNVVTRHRY [aPP^Y7A]	3.77	when n = 4 26.28	3.9×10^−12 M^3	–
GPSQPTAPGDDAPVEDLIRFYDNLRQYLNVVTRHRY [aPP^Y7AQ25R]	4.06	when n = 4 29.34	1.8 × 10^−13 M^3	78
GPSQPTAPGDDAVPEDLIRFYDNLQQYLNVVTRHRY [aPP^Y7AP13VV14P]	4.48	when n = 4 27.92	7.5 × 10^−13 M^3	90
GPSQPTYPGDDAPVEDLIRAYDNLQQYLNVVTRHRY [aPP^F20A]	3.87	when n = 4 23.29	7.6×10^−11 M^3	–
aPP^Y7AT6E: SEQ ID NO: 8, CPSQPEAPGDDAPVEDLIRFYDNLQQYLNVVTRHRY (Table 1 prints GPSQPE...)	3.88	–	2.0 × 10^−13 M^3	79
